Test results reported in patent US20060172423A1, “New expression system from rhodococcus” (priority 2002, published 2006).
Read-outs that look alike come from different tables or passages of the source.

Assays:
[1] = test system: repressor-promoter system of the KstD gene; test: steroid induction of KSTD activity in cell free extracts (DCPIP as electron acceptor, AD as substrate), SQ1; type: cell-based, Rhodococcus erythropolis SQ1
Method: 4-androstene-3,17-dione (AD) induction served as a positive control.
From induced cultures, cell free extracts were prepared as indicated above and tested for KSTD activity using DCPIP as an electron acceptor and AD as a substrate.
(§1) Further, it was investigated whether KSTD1 was constitutively expressed in R. erythropolis RG10. Cell free extracts were prepared from an AD-induced cell culture and from a non-induced cell culture. These extracts were tested for KSTD activity using DCPIP as an electron acceptor and AD as a substrate. For reasons of comparison, the same procedure was performed with R. erythropolis SQ1.

KSTD activity [2] = test: KSTD activity in cell free extracts (DCPIP as electron acceptor, AD as substrate), RG10; type: cell-based, Rhodococcus erythropolis RG10; settings: cell free extract of AD-induced culture
Method: as §1

KSTD activity [3] = settings: gene disruption mutant SDH420; cited from earlier work

SMILES	lifting of kstD promoter repression exerted by the kstR gene product ([1]; addition of steroid compound)	further results
C[C@@H]1CC2=CC(=O)CC[C@@H]2[C@H]2CC[C@]3(C)C(=O)CC[C@H]3[C@@H]21 [7α-methyl-nordione]	able to lift kstD promotor repression	
C[C@]12CCC(=O)C=C1CC[C@H]1[C@@H]3CCC(=O)[C@@]3(C)CC[C@@]12O [9OHAD, 9α-hydroxy-4-androstene-3,17-dione]		lifting of kstD promoter repression exerted by the kstR gene product [1]: able to lift kstD promotor repression
C=C1C[C@]2(C)C(=O)CC[C@H]2[C@@H]2CCC3=CC(=O)CC[C@@H]3[C@@H]12 [11-methylene-nordione]	able to lift kstD promotor repression	
C[C@]12CC[C@H]3C(=CCC4=CC(=O)CC[C@@]43CO)[C@@H]1CCC2=O [19-OH-7-dehydro-androstene-3,17-dione]	able to lift kstD promotor repression	
C[C@]12CCC(=O)C=C1CC[C@@H]1[C@@H]2CC[C@]2(C)C(=O)CC[C@@H]12 [AD, 4-androstene-3,17-dione]	able to lift kstD promotor repression	induction of KSTD activity in R. erythropolis SQ1 ([1]; cell free extracts of induced cultures, DCPIP electron acceptor, AD substrate): detected; KSTD activity in R. erythropolis RG10 (KSTD activity [2]): present; induction of wild-type KSTD activity in R. erythropolis SDH420 (KSTD activity [3]): can be induced
C[C@]12C=CC(=O)C=C1CC[C@@H]1[C@@H]2CC[C@]2(C)C(=O)CC[C@@H]12 [ADD, 1,4-androstadiene-3,17-dione]	able to lift kstD promotor repression	
C[C@]12CC[C@H]3[C@@H](CCC4=CC(=O)CC[C@@H]43)[C@@H]1CCC2=O [estr-4-ene-3,17-dione]	able to lift kstD promotor repression	
CC(=O)[C@H]1CC[C@H]2[C@@H]3CC=C4C[C@@H](O)CC[C@]4(C)[C@H]3CC[C@]12C [pregnenolone]	able to lift kstD promotor repression	
CC(=O)[C@H]1CC[C@H]2[C@@H]3CCC4=CC(=O)CC[C@]4(C)[C@H]3CC[C@]12C [progesterone]	able to lift kstD promotor repression	
C[C@]12CCC(=O)C[C@@H]1CC[C@@H]1[C@@H]2CC[C@]2(C)[C@@H](O)CC[C@@H]12 [stanolone, 17β-OH-5α-androstane-3-on]		lifting of kstD promoter repression exerted by the kstR gene product [1]: able to lift kstD promotor repression
C[C@]12CC[C@H]3[C@@H](CCC4=CC(=O)CC[C@@]43C)[C@@H]1CC[C@@H]2O [testosterone]		lifting of kstD promoter repression exerted by the kstR gene product [1]: able to lift kstD promotor repression
